Values of other authors, collected in patent US20060188878A1, “Methods to predict ederma as a side effect of drug treatment” (priority 2002, published 2006).

Tested on: CML
[1] = of 54 CML patients treated with 300 mg or more

Structure (SMILES): Cc1ccc(NC(=O)c2ccc(CN3CCN(C)CC3)cc2)cc1Nc1nccc(-c2cccnc2)n1 [Imatinib]
- Patients with complete cytogenetic remission [1]: 7
- Patients with complete hematologic responses [1]: 53
- Patients with cytogenic responses [1]: 29
- Patients with major cytogenetic responses (0-35% of cells in metaphase positive for the Ph′ chromosome) [1]: 17
- Patients with major cytogenetic responses, percent (of the 54 patients who received the dose (300 mg or more)): 31%
